Results from patent publication US20250115595A1, “INHIBITORS OF HYPOXIA-INDUCIBLE FACTORS” (The Johns Hopkins University, priority 2021, published 2025).

Legend:
Assay type in all cases: in vivo, mouse
[1] = tested on: tumor immune microenvironment; test: Flow cytometry of immune cell populations in Hepa1-6 tumors; conditions: 200-mm3 tumors, within 8 days
Experimental: To analyze the mechanism by which 32-134D increased the response to anti-Pd1 therapy, tumor-bearing mice were treated with 32-134D or vehicle, and immune cell populations in well-established 200-mm^3 tumors were analyzed by flow cytometry.
Hepa1-6 tumors were digested with collagenase (1 mg/ml) at 37° C. for 30 minutes and the resulting single cell suspension was passed through a 70-μm cell strainer and washed twice with cold PBS. Cells were resuspended in FC buffer for subsequent flow cytometry analysis. […]

C57BL/6 mice [2] = test: Retinal safety after intraocular injection (ERG, histology, RGC count)
Experimental: To reduce the risk of systemic side effects while optimizing the delivery of drugs to retinal tissue, therapies for ocular vascular disease are often administered by intravitreal injection. Therefore, it was assessed whether […] causes retinal toxicity following intraocular administration. To this end, ERGs up to 5 weeks were examined following a single intraocular injection of increasing doses (70, 140, 210, and 350 ng) of 32-134D.
To assess whether a higher dose of 32-134D could facilitate less frequent administration, the safety of higher doses of intraocular administration of 32-134D was assessed. To this end, ERGs up to 2 weeks following a single intraocular injection of high doses (500 and 1,000 ng) of 32-134D were examined.
Intraocular injections: Intravitreal injections were performed with a PLI-100A Pico-liter Microinjector (Warner Instruments, Harvard Bioscience) using pulled-glass micropipettes. Each micropipette was calibrated to deliver a 1 μl volume on depression of a foot switch. The mice were anesthetized with a ketamine (100 mg/kg) and xylazine (5 mg/kg) mixture, and under a dissecting microscope, the sharpened tip of the micropipette was passed through the sclera just posterior to the limbus into the vitreous cavity and the foot switch was depressed, which caused fluid to penetrate into the vitreous space. Test compound was injected into the vitreous cavity in OIR and STZ mice for vascular permeability test, retinal vasculature and lysates for WB and qPCR analysis.
Flash scotopic ERGs: All procedures were performed under dim red light. Mice were dark adapted overnight, anesthetized with ketamine (50 mg/kg) and xylazine (5 mg/kg) and pupils were dilated with a topical drop of tropicamide (1%). Scotopic ERG responses were measured using the Celeris ERG stimulator (Diagnosys, Lowell, MA) at flash intensities of 0.025, 0.25, 2.5, 7.96, and 79.06 cd/s/m2. ERGs were measured simultaneously from both eyes with a ground electrode placed into the forehead between the eyes and a reference electrode into the hip.

C57BL/6 mice [3] = test: Ischemia/reperfusion (I/R) model of vascular permeability; conditions: 5 daily IP injections 40 mg/kg
Experimental: The ability of 32-134D to inhibit vascular permeability in retinal vein occlusion patients was evaluated using the ischemia/reperfusion (I/R) model for vascular permeability in ischemic retinal disease. Transient ischemia was induced in the left eye in 8-to-10-week-old male C57BL/6 mice; the right eye was used as the non-I/R control. Following ischemia, mice were treated with 5 daily IP injections of vehicle control or 32-134D at 40 mg/kg. 24 hours after the fifth IP injection, mice were euthanized, Evans blue perfusion was performed, and retina flat mounts were examined for vascular leakage. […] There was no difference between non-/R (healthy) eyes and I/R eyes treated with 32-134D.
Vascular permeability by Evans blue tracer method: Mice were anesthetized with a mixture of ketamine (50 mg/kg) and xylazine (5 mg/kg) and subjected to Evans blue (Sigma) (50 mg/kg) perfusion by penile vein injection. […] Images were captured by Zeiss fluorescent microscope or confocal microscopy and fluorescence quantified by image J software (NIH). […] Blinded quantification of the number of leaking vessels was performed by manual counting major leakage from capillaries from retinas of each group. Non-capillary artifactual Evans blue or FITC-dextran leakage due to flat mount processing as well as minor leakages were not included in the quantitation. […] For quantification, high magnifications (20×) images were taken. […]

With Brc1ccc2c(-c3csc(-c4c[nH]c5c(Br)cccc45)n3)c[nH]c2c1 [Compound 32-134D, 4-(6-bromo-1H-indol-3-yl)-2-(7-bromo-1H-indol-3-yl)thiazole] as the molecule, how does the “percentage of Cd8+Ifng+ activated CTLs and Nk1.1+Cd3−Cd314+ activated NK cells” value [1] read?
Its value is “significantly increased”.

What about the “percentage of Cd11b+F4/80+ tumor-associated macrophages and Cd11b+Ly6g+Ly6c− myeloid-derived suppressor cells” value [1] of the same molecule?
The value was “decrease”.

What about the “retinal histology including GCL” value (C57BL/6 mice [2]; 35 days after intraocular injection of up to 350 ng) of the same molecule?
Its value is “normal histology”.

And the “number of RGCs on retinal flat mounts” value (C57BL/6 mice [2]; highest doses tested (210 or 350 ng), 35 days)?
Its value is “unaffected”.

What about the “ERG evidence of retina toxicity” value (C57BL/6 mice [2]; single intraocular injection 70, 140, 210, 350 ng, up to 5 weeks) of the same molecule?
The value was “no ERG evidence of retina toxicity”.

What about the “ERG evidence of retina toxicity” value (C57BL/6 mice [2]; single intraocular injection 500 and 1,000 ng, up to 2 weeks) of the same molecule?
The value was “no ERG evidence of retina toxicity”.

What about the “vascular leakage in I/R eyes (Evans blue)” value (C57BL/6 mice [3]) of the same molecule?
Its value is “significant reduction in vascular leakage”.
